How the values were obtained:
CRBN−/− MOLT4 cells = assay: CellTiter-Glo cell viability, 72 hours; type: cell-based
PLK1 = PLK1 (Homo sapiens, UniProt P53350); assay: PLK1 level by immunoblot in MOLT4 cells; type: cell-based
Method: MOLT4 cells were plated at 1.5 million cells per well in a 6-well plate, with 3 mL of media per well. Cells were then immediately treated with the indicated concentration of the indicated compound and incubated for the indicated amount of time. Cells were collected by transferring each well to a 15 mL conical, centrifuging (1000 rpm for 3 min), then washing the cell pellet 2× with cold PBS. Each cell pellet was then lysed in 100 μL of RIPA lysis buffer (+protease/phosphatase inhibitors). Samples were normalized and prepped in 4×LDS+10% β-mercaptoethanol and boiled for 5 min at 95° C. Lysates were probed for specified proteins by western blotting using the Bolt® system (Life Technologies™)
Immunoblotting: Cells were washed with phosphate-buffered saline (PBS) and then lysed using radioimmunoprecipitation assay (RIPA) buffer supplemented with protease and phosphatase inhibitor cocktail (Roche) on ice for 15 minutes. The lysates were centrifuged at 14,000 rpm for 15 minutes at 4° C. and protein was quantified by bicinchoninic acid (BCA) assay (Pierce™). […]
FIG. 2A is an immunoblot showing that compound 13 degraded Wee1 after a 6-hour treatment in MOLT4 cells, and induced the downstream changes expected from Wee1 loss—including a decrease in phosphorylated cyclin-dependent kinase 1 (pCDK1) (Y15) and an increase in pH 3. […] Proteins of interest were then assessed by western blotting.

PLK1, sequence (P53350 whole entry): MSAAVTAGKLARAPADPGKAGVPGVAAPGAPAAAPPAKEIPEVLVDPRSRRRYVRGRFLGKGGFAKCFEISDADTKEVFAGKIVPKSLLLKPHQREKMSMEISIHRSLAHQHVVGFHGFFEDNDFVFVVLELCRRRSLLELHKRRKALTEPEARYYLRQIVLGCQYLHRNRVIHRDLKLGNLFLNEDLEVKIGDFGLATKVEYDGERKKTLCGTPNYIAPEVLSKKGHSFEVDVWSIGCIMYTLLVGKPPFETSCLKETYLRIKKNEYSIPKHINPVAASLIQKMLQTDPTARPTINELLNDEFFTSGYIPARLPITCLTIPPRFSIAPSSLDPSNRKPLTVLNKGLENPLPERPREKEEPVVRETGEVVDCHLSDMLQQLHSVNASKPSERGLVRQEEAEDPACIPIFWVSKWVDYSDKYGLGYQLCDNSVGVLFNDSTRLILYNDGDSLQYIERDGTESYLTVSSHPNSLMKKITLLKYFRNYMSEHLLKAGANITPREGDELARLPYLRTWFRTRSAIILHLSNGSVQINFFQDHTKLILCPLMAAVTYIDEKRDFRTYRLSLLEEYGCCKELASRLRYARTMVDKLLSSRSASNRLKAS

`C=CCn1c(=O)c2cnc(Nc3ccc(N4CCN(CCCNc5cccc6c5C(=O)N(C5CCC(=O)NC5=O)C6=O)CC4)cc3)nc2n1-c1cccc(C(C)(C)O)n1` (centres unmarked) [Compound 13, 4-((3-(4-(4-((2-allyl-1-(6-(2-hydroxypropan-2-yl)pyridin-2-yl)-3-oxo-2,3-dihydro-1H-pyrazolo[3,4-d]pyrimidin-6-yl)amino)phenyl)piperazin-1-yl)propyl)amino)-2-(2,6-dioxopiperidin-3-yl)isoindoline-1,3-dione] was tested, and the “Rescue of anti-proliferative activity, CRBN−/− versus WT MOLT4 cells” value (CRBN−/− MOLT4 cells; Example 28, FIG. 3A/3B, 72-hour) was about 15 fold, the “Shift in cellular IC50, CRBN−/− versus parental MOLT4 cells” value (CRBN−/− MOLT4 cells; Example 32, FIG. 6A) was “approximately 6 fold” and the IC50 (CRBN−/− MOLT4 cells; Homo sapiens, MOLT-4, MOLT4 CRBN−/− cells, 72 hours, CellTiter-Glo, read-out: Antiproliferative IC50) was 2220 nM. The PLK1 degradation (PLK1; 6-hour treatment) was “not degraded” and the PLK1 levels (PLK1; treated for up to 48 hrs) was “not reduced”.
